This is an account of results in US20240116910A1, “Heterocycles as WIP1 Inhibitors” (PMV Pharmaceuticals, Inc., priority 2022, published 2024).

Assay [1] deals with recombinant His-tag Wip1(2-420) protein (amino acids #2-420) (Homo sapiens (Human), UniProt O15297). Nature of the assay: Wip1(2-420) phosphatase enzyme FDP assay. In kind it is biochemical. Particulars: fluorescein diphosphate (FDP) substrate, RT 2 hours, fluorescence Ex485/Em535; read-out: WIP1 (Truncated 2-420) FDP Assay: IC50.
Assay [2] addresses recombinant His-tag Wip1 full length protein (amino acids #1-605) (Homo sapiens (Human), UniProt O15297). Put plainly: Wip1 full length phosphatase enzyme FDP assay. Particulars: fluorescein diphosphate (FDP) substrate, RT 2 hours, fluorescence Ex485/Em535. In kind it is biochemical. How it is done:
The Human Wip1 (2-420, aa 2-420) or Wip1 full length (aa 1-605) DNA sequence was codon optimized and synthesized by Genscript for insect cell expression. The open reading frame of Wip1(2-420) with a N-terminal-His6 affinity tag followed by a TEV cleavage site was subcloned sites into the pFastBac1 expression vector. The recombinant bacmid DNA was transfected in Sf9 insect cells for baculovirus production. After 72 hours infection, the Sf9 cells were harvested by centrifugation and resuspended in lysis buffer containing 50 mM Tris/HCl, pH 8.0, 500 mM NaCl, 20% glycerol, Benzonase 0.5% CHAPS and Roche cOmplete™ EDTA free protease inhibitors. Cells were disrupted with microfluidizer and the debris was removed by centrifugation at 185,000 g for 1 hour. The supernatant was subjected to HisTrap FF for affinity purification. Proteins were eluted with a linear gradient of 0-500 mM imidazole in HisTrap buffer containing 50 mM Tris/HCl, pH 8.0, 500 mM NaCl and 20% glycerol, 0.05% CHAPS. The eluted protein was dialyzed against dialysis buffer (20 mM MES, 100 mM NaCl, 20% glycerol, 0.5 mM TCEP, 0.05% CHAPS) followed purification via HiTrap SP HP column. The protein was eluted with a gradient of 100 mM-2 M NaCl in dialysis buffer. His6-[…] was finally concentrated and loaded onto a size-exclusion column (NiLoad 16/600 Superdex 200 pg, GE Healthcare) pre-equilibrated with 50 mM MOPS (pH 7.5), 200 mM NaCl, 20% glycerol, 1 mM TCEP, 0.05% CHAPS and 0.1 mM EGTA. The peak fractions containing purified Nis6-Wip1(2-420) were pooled and concentrated to 1.0 mg/mL and flash frozen at −80° C.
Wip1 Length and Wip1(2-420) Phosphatase Enzyme FDP Assays.
Test compounds (252 mM stock in DMSO) were diluted 3 folds in series in DMSO and 1.2 μl per well were added into 384-well polypropylene black plates (Nunc). Twelve μl per well of Assay Buffer (100 mM NaCl, 50 mM MOPS, pH 7.5, 0.8 mM CHAPS, 0.1 mM EGTA, 30 mM MgCl2, 0.3 mM TCEP, 0.2 mg/mL BSA) was added followed by […] per well of 50.4 nM recombinant His-tag Wip1 full length protein (amino acids #1-605) or recombinant His-tag Wip1(2-420) protein (amino acids #2-420) in Assay Buffer and the plate was incubated at RT (22° C.) for 5 min. Ten mM of fluorescein diphosphate (FDP) in DMSO was diluted to […] in Assay Buffer and […] per well was added to the plate and incubated at RT (22° C.) for 2 hours. […] per well of 64.1 mM EDTA in water were added to stop the enzyme reaction. The plate was centrifuged at 1,200 rpm (Eppendorf 5810R Plate centrifuge) for 1 minute and fluorescence intensity (Ex485/Em535) was measured on Perkin Elmer Victor Reader. EC50 values were calculated using either Prism (GraphPad) or ActivityBase software (IDBS), The IC50 results are provided in Table M.

recombinant His-tag Wip1(2-420) protein (amino acids #2-420), sequence (O15297 2-420): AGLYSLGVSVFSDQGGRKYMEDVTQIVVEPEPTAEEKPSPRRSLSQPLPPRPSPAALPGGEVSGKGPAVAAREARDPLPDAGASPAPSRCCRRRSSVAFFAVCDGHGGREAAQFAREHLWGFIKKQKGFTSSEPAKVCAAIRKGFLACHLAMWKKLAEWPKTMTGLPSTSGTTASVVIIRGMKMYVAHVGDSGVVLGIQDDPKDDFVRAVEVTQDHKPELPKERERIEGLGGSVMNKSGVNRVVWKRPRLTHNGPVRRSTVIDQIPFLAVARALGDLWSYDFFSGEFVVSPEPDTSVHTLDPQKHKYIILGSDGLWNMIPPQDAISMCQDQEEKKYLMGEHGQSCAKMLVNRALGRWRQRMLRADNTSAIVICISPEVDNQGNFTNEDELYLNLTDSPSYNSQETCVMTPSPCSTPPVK
recombinant His-tag Wip1 full length protein (amino acids #1-605), sequence (O15297 whole entry, the tested form may be a part): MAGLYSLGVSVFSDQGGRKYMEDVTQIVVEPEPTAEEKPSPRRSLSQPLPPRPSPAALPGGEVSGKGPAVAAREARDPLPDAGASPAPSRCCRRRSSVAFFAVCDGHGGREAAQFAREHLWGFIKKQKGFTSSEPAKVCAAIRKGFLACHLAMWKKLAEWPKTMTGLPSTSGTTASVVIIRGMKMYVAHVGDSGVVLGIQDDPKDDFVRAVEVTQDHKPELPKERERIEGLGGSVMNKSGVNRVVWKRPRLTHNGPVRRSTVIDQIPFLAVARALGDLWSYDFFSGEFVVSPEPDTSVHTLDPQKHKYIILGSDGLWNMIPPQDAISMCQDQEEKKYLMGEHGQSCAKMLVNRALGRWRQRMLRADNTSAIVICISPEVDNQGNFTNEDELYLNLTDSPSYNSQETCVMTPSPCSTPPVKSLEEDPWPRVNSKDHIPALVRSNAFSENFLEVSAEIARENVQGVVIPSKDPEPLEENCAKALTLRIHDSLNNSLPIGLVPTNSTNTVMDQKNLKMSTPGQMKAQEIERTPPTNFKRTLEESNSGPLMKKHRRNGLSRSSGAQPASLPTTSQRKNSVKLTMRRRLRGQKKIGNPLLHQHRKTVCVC

Take `Cc1ncc(Cl)cc1N[C@@H](C)c1ccc(C(=O)N[C@@H](CC2CCCC2)C(=O)NC2CC3CCC(C2)O3)s1` (stereo partly drawn) [Compound 63, (2S)-2-({5-[(1S)-1-[(5-chloro-2-methylpyridin-3-yl)amino]ethyl]thiophen-2-yl}formamido)-3-cyclopentyl-N-{8-oxabicyclo[3.2.1]octan-3-yl}propanamide]: the values for the IC50 in assay [1] and in assay [2] were 15 nM and 22 nM, respectively.
The like results for `CCNC(=O)[C@H](CC1CCCC1)NC(=O)c1ccc([C@H](C)Nc2cc(Cl)cnc2C)s1` [Compound 77, (2S)-2-({5-[(1S)-1-[(5-chloro-2-methylpyridin-3-yl)amino]ethyl]thiophen-2-yl}formamido)-3-cyclopentyl-N-ethylpropanamide] were, in that order, 6 nM and 10 nM.
In the case of `CC(Nc1cccc(Cl)c1)c1ncc(C(=O)N[C@@H](CC2CCCC2)C(=O)NC2CC2)s1` (stereo partly drawn) [Compound 123, (2S)-2-[(2-{1-[(3-chlorophenyl)amino]ethyl}-1,3-thiazol-5-yl)formamido]-3-cyclopentyl-N-cyclopropylpropanamide], the IC50 was found to be 159 nM in assay [1] and 39 nM in assay [2].
In the same order, the values of `COCCOc1ccc(NC(=O)[C@H](CC2CCCC2)NC(=O)c2ccc([C@H](C)Nc3cc(Cl)cnc3C)s2)cc1` [Compound 59, (2S)-2-({5-[(1S)-1-[(5-chloro-2-methylpyridin-3-yl)amino]ethyl]thiophen-2-yl}formamido)-3-cyclopentyl-N-[4-(2-methoxyethoxy)phenyl]propanamide] are 5 nM and 7 nM.
In the same order, the values of `Cc1ncc(Cl)cc1N[C@@H](C)c1ccc(C(=O)N[C@@H](CC2CCCC2)C(=O)N[C@@H]2C[C@@H]2F)s1` [Compound 30, (2S)-2-({5-[(1S)-1-[(5-chloro-2-methylpyridin-3-yl)amino]ethyl]thiophen-2-yl}formamido)-3-cyclopentyl-N-[(1R,2S)-2-fluorocyclopropyl]propanamide] are 6 nM and 10 nM.
The like results for `Cc1ncc(Cl)cc1NC(C)(C)c1ccc(C(=O)N[C@@H](CC2CCCC2)C(=O)NC23CC(C2)C3)s1` [Compound 54, (2S)-N-{bicyclo[1.1.1]pentan-1-yl}-2-[(5-{2-[(5-chloro-2-methylpyridin-3-yl)amino]propan-2-yl}thiophen-2-yl)formamido]-3-cyclopentylpropanamide] were, in that order, 8 nM and 11 nM.
In the case of `C[C@@H](c1ccc(C(=O)N[C@@H](CC2CCCC2)C(=O)NC2CC2)s1)N1CCc2cc(F)c(Cl)cc21` [Compound 56, (2S)-2-({5-[(1S)-1-(6-chloro-5-fluoro-2,3-dihydro-1H-indol-1-yl)ethyl]thiophen-2-yl}formamido)-3-cyclopentyl-N-cyclopropylpropanamide], the concentration for half-maximal inhibition (IC50) in assay [1] worked out at 39 nM; in assay [2], 50 nM.
The like results for `CC(c1ccc(C(=O)N[C@@H](CC2CCCC2)C(=O)NC2CC2)s1)N1CCc2cc(F)c(Cl)cc21` (stereo partly drawn) [Compound 46, (2S)-2-({5-[1-(6-chloro-5-fluoro-2,3-dihydro-1H-indol-1-yl)ethyl]thiophen-2-yl}formamido)-3-cyclopentyl-N-cyclopropylpropanamide] were, in that order, 16 nM and 23 nM.
In the same order, the values of `Cc1ncc(Cl)cc1N[C@@H](C)c1ncc(C(=O)N[C@@H](CC2CCCC2)C(=O)NC23CC(C2)C3)s1` [Compound 278, (2S)-N-{bicyclo[1.1.1]pentan-1-yl}-2-({2-[(1S)-1-[(5-chloro-2-methylpyridin-3-yl)amino]ethyl]-1,3-thiazol-5-yl}formamido)-3-cyclopentylpropanamide] are 19 nM and 30 nM.
In the same order, the values of `COc1ncc(Cl)cc1N[C@@H](C)c1ccc(C(=O)N[C@@H](CC2CCCC2)C(=O)N[C@H]2CC2(F)F)s1` [Compound 49, (2S)-2-({5-[(1S)-1-[(5-chloro-2-methoxypyridin-3-yl)amino]ethyl]thiophen-2-yl}formamido)-3-cyclopentyl-N-[(1S)-2,2-difluorocyclopropyl]propanamide] are 104 nM and 164 nM.
Regarding `C[C@@H](Nc1cccc(Cl)c1)c1ccc(C(=O)N[C@@H](CC2CCCC2)C(=O)NC2CC2)s1` [Compound 1, 5-[1-(3-chloroanilino)ethyl]-N-[(1S)-1-(cyclopentylmethyl)-2-(cyclopropylamino)-2-oxo-ethyl]thiophene-2-carboxamide], the results for the IC50 in assay [1] and in assay [2] were 6 nM and 9 nM, respectively.
The like results for `Cc1ncc(Cl)cc1N[C@@H](C)c1ccc(C(=O)N[C@@H](CC2CCCC2)C(=O)NC2CC(F)(F)C2)s1` [Compound 25, (2S)-2-({5-[(1S)-1-[(5-chloro-2-methylpyridin-3-yl)amino]ethyl]thiophen-2-yl}formamido)-3-cyclopentyl-N-(3,3-difluorocyclobutyl)propanamide] were, in that order, 5 nM and 8 nM.
`Cc1ncc(Cl)cc1N[C@@H](C)c1ccc(C(=O)N[C@@H](CC2CCCC2)C(=O)NC2CC(C#N)C2)s1` (stereo partly drawn) [Compound 33, (2S)-2-({5-[(1S)-1-[(5-chloro-2-methylpyridin-3-yl)amino]ethyl]thiophen-2-yl}formamido)-N-(3-cyanocyclobutyl)-3-cyclopentylpropanamide]: the IC50 stood at 8 nM in assay [1] and 11 nM in assay [2].
In the same order, the values of `Cc1ncc(Cl)cc1N[C@@H](C)c1ccc(C(=O)N[C@@H](CC2CCCC2)C(=O)NC2CCC(F)(F)C2)s1` (stereo partly drawn) [Compound 26, (2S)-2-({5-[(1S)-1-[(5-chloro-2-methylpyridin-3-yl)amino]ethyl]thiophen-2-yl}formamido)-3-cyclopentyl-N-(3,3-difluorocyclopentyl)propanamide] are 7 nM and 9 nM.
The like results for `Cc1ncc(Cl)cc1N[C@@H](C)c1ccc(C(=O)N[C@@H](CC2CCCC2)C(=O)NC23CC(O)(C2)C3)s1` [Compound 20, (2S)-2-({5-[(1S)-1-[(5-chloro-2-methylpyridin-3-yl)amino]ethyl]thiophen-2-yl}formamido)-3-cyclopentyl-N-{3-hydroxybicyclo[1.1.1]pentan-1-yl}propanamide] were, in that order, 8 nM and 10 nM.
In the same order, the values of `Cc1ncc(Cl)cc1N[C@@H](C)c1ccc(C(=O)N[C@@H](CC2CCCC2)C(=O)Nc2cccc(S(C)(=O)=O)c2)s1` [Compound 41, (2S)-2-({5-[(1S)-1-[(5-chloro-2-methylpyridin-3-yl)amino]ethyl]thiophen-2-yl}formamido)-3-cyclopentyl-N-(3-methanesulfonylphenyl)propanamide] are 5 nM and 7 nM.
`O=C(N[C@@H](CC1CCCCC1)C(=O)NC1CCOCC1)c1cnc(CNc2ccnc(C(F)(F)F)c2)s1` [Compound 305, N-[(1S)-1-(cyclohexylmethyl)-2-oxo-2-(tetrahydropyran-4-ylamino)ethyl]-2-[[[2-(trifluoromethyl)-4-pyridyl]amino]methyl]thiazole-5-carboxamide]: the IC50 in assay [1] stood at 90 nM; in assay [2] it was 31 nM.
The like results for `COc1ncc(Cl)cc1N[C@@H](C)c1ccc(C(=O)N[C@@H](CC2CCCC2)C(=O)NC23CC(C#N)(C2)C3)s1` [Compound 82, (2S)-2-({5-[(1S)-1-[(5-chloro-2-methoxypyridin-3-yl)amino]ethyl]thiophen-2-yl}formamido)-N-{3-cyanobicyclo[1.1.1]pentan-1-yl}-3-cyclopentylpropanamide] were, in that order, 13 nM and 20 nM.

For orientation: IC50 means the concentration that inhibits the measured activity by half.
